Test results taken from ChEMBL document CHEMBL5729068, “Inhibitors of KRAS G12C and methods of using the same” (2022).
pIC50: −log10 of the molar value.

Molecular target: GTPase KRas (Homo sapiens, UniProt P01116, C118A/G12C)
Experiment: Biochemical Assay: The following assay conditions were employed: Coupled Nucleotide Exchange Assay: Purified GDP-bound KRAS protein (aa 1-169), containing both G12C and C118A amino acid substitutions and an N-terminal His-tag, was pre-incubated with a compound dose-response titration for 5 min in assay buffer (25 mM HEPES pH 7.4, 10 mM MgCl2, and 0.01% Triton X-100). Following compound pre-incubation, purified SOS protein (aa 564-1049) and GTP (Roche 10106399001) were added to the assay wells and incubated for an additional 30 min. To determine the extent of inhibition of SOS-mediated nucleotide exchange, purified GST-tagged cRAF (aa 1-149), nickel chelate AlphaLISA acceptor beads (PerkinElmer AL108R), and AlphaScreen glutathione donor beads (PerkinElmer 6765302) were added to the assay wells and incubated for 5 minutes. The assay plates were then read on a PerkinElmer EnVision Multilabel Reader, using AlphaScreen® technology, and data were analyzed using a 4-parameter logistic model to calculate IC50 values.

GTPase KRas, sequence (P01116 whole entry G12C/C118A, the tested form may be a part): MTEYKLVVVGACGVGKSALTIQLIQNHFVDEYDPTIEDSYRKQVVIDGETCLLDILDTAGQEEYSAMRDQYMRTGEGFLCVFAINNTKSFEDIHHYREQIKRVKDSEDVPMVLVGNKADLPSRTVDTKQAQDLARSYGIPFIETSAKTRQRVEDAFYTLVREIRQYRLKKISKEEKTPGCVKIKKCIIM

Compound: C=CC(=O)N1[C@H](C)CN(c2nc(=O)n(-c3c(C)ccnc3C(C)C)c3nc(-c4c(N)cccc4F)c(Cl)cc23)C[C@@H]1C (atropisomer, axis not shown)
- pIC50: 7.85
